Data from patent US20170290882A1, “Specific Combined Therapy of Malignant Tumors with a Cytostatic and Its Modifier” (priority 2015, published 2017).

Columns and labels:
[1] = tested on: P388 lymphoplastic leukemia; assay: Combined therapy different cytostatics+GMDP-A in the P388 lymphoplastic leukemia model; assay type: in vivo, BDF1 mice; conditions: single cytostatic alone (DDP 1/2, gemzar 1/2, CP 1/4 therapeutic dose), start 24 hours after inoculation
Protocol: Anti-tumor efficiency of the claimed combined therapy and comparative monotherapy using only a cytostatic or only GMDP-A modifier was assessed by the criteria commonly used in experimental oncology: tumor volume (TV), tumor growth inhibition (TGI), increase of the animal life time (ILT), tumor metastasis frequency (MF), metastasis inhibition rate (MI).
Comparative study was carried out of the GMDP-A modifying effect relatively different cytostatic agents: cisplatin (DDP), gemzar and cyclophosphan (CP), in the P388 lymphoplastic leukemia model. Efficiency of combined therapy with cytostatics and GMDP-A was assessed while using DDP in amount of ½ therapeutic dose, gemzar as ½ therapeutic dose and CP in amount of ¼ therapeutic dose. Treatment was started on the early term of tumor growth (in 24 hours after inoculation); GMDP-A was injected during 21 days in a daily dose of 3.75 mg/kg. The drug was administered subcutaneously in 2 areas: in the tumor growth area (over the tumor) or in symmetry area (on the opposite side of the tumor node).
The following commercially-available drugs were used: Cyclophosphan Endoxan® trade mark, manufactured by Baxter Oncology GmbH, Germany; Cisplatin, Cisplatin Teva trade mark, manufacturer is Teva Pharmaceutical Industries Ltd., Israel (fabricated at Pharmachemie B. V., the Netherlands); Gemcitabine, Gemcitar trade mark, manufactured by CJSC Biocad, Russia.
1 mg/ml GMDP-A solution for subcutaneous injection was prepared by dissolving GMDP-A lyophilisate in water for injections.

[2] = during intravenous injection; cited from earlier work
[3] = tested on: B16 melanoma; assay: Binary therapy DDP+GMDP-A in the B16 melanoma model; assay type: in vivo, BDF1 mice; conditions: single DDP 4 mg/kg i.v. alone
Protocol: (§1) They were transplanted on the right-side surface of the animal body.
(§2) The animals with tumors were treated in test groups at the early (24 hours after tumor inoculation) and late (5 days after tumor inoculation) terms of the tumor growth using a single cytostatic injection intravenously in a dose equal to ½ or ¼ of therapeutic one and various schedules for GMDP-A injection: • Primary subcutaneous injection of GMDP-A modifier in a single dose 3.75 mg/kg; • Repeated protracted subcutaneous administration of GMDP-A modifier according to different schedules: 4-fold, 9-fold and 20-fold, once per day, in a single dose of 3.75 mg/kg (course dose is 18.75 mg/kg, 37.5 mg/kg and 78.75 mg/kg, correspondingly). Dosage frequency depends upon the model (histological form of transplanted tumor).
(§3) To identify efficiency of the claimed combined therapy, independent medication was carried out as a control after tumor inoculation using one component of binary therapy-cytostatic drug or a modifier. Cytostatic was injected intravenously in amount of ½ or ¼ of therapeutic dose once after 24 hours or 5 days after tumor inoculation; GMDP-A modifier was administered subcutaneously in a single dose of 3.75 mg/kg 5-fold from the 1st day to the 5th day or from the 5th day to the 9th day, or 10-fold from the 1st day to the 10th day or from the 5th day to the 14th day, or 21-fold from the 1st day to the 21st day after tumor inoculation.
Efficiency of the combined therapy—chemotherapy with DDP cytostatic and biotherapy with GMDP-A was assessed on B16 melanoma model inoculated to BDF1 mice, females, subcutaneously on the right-side body surface.
GMDP-A was administered to mice subcutaneously as a single dose of 3.75 mg/kg every day with different schedules:
Five-fold (total dose is 18.75 mg/kg) on the 1st day to the 5th day or on the 5th day to the 9th day after tumor inoculation;
Ten-fold (total dose is 37.5 mg/kg) on the 1st day to the 10th day or on the 5th day to the 14th day after tumor inoculation;
DDP (Cisplatin, Cisplatin Teva trade mark, manufacturer is Teva Pharmaceutical Industries Ltd., Israel, fabricated at Pharmachemie B.V., the Netherlands) was administered intravenously as a single dose of 4 mg/kg (½ of therapeutic dose).

[4] = tested on: P388 lymphoplastic leukemia; assay: Combined therapy DDP+GMDP-A in the P388 lymphoplastic leukemia model; assay type: in vivo, mice BDF1; conditions: single DDP 4 mg/kg i.v. alone
Protocol: as §1, §2, §3
Efficiency of the combined therapy—chemotherapy with cisplatin cytostatic (DDP) and bioherapy with GMDP-A was assessed on P388 lymphoplastic leukemia model inoculated to mice BDF1, females, subcutaneously on the right-side body surface.
GMDP-A was administered to mice subcutaneously as a single dose of 3.75 mg/kg every day with different schedules: • Five-fold (total dose is 18.75 mg/kg) on the 1st day to the 5th day or on the 5th day to the 9th day after tumor inoculation; • Ten-fold (total dose is 37.5 mg/kg) on the 1st day to the 10th day or on the 5th day to the 14th day after tumor inoculation; • Twenty-one-fold (total dose is 78.75 mg/kg) on the 1st day to the 21st st day after tumor inoculation.
DDP (Cisplatin, Cisplatin Teva trade mark, manufacturer is Teva Pharmaceutical Industries Ltd., Israel, fabricated at Pharmachemie B.V., the Netherlands) was administered intravenously as a single dose ma 4 mg/kg (½ of therapeutic dose).

[5] = tested on: P388 lymphoplastic leukemia; assay: GMDP-A lyophilisate versus final pharmaceutical form, alone and with DDP, in the P388 lymphoplastic leukemia model; assay type: in vivo, BDF1 mice; conditions: if given, 21-fold, single
Protocol: Therapeutic efficiency of GMDP-A lyophilisate and the GMDP-A final pharmaceutical form was compared in the model of P338 lymphoplastic leukemia solid version at the early treatment start (in 24 hour after subcutaneous transplantation of tumor material) as GMDP-A monotherapy (lyophilisate or the final pharmaceutical form) as well as combined administration with DDP.
As a final pharmaceutical form, “GMDP-A, 1 mg/ml solution for subcutaneous injection” sterile solutions were used. They contained GMDP-A and the following auxiliary substances and carriers in pharmaceutically-accepted amounts: sorbitol, disodium edeteate, propylene glycol, water.

## Nc1ccn([C@@H]2O[C@H](CO)[C@@H](O)C2(F)F)c(=O)n1 [Gemzar, Gemcitabine]
[1]; day 7
  tumor growth inhibition (TGI): 60%
[1]; day 12
  tumor growth inhibition (TGI): 37%
[1]; day 14
  tumor growth inhibition (TGI): 34%
[1]; day 19
  tumor growth inhibition (TGI): 45%
[1]; day 21
  tumor growth inhibition (TGI): 44%
[1]
  Average life time: 29 ± 2 days
  ILT (increase of the animal life time): 21%
  Metastasis MF (tumor metastasis frequency): 100%
  Metastasis MI (metastasis inhibition rate): 69%

## O=P1(N(CCCl)CCCl)NCCCO1 (stereo not drawn) [CP, cyclophosphan]
[1]; day 7
  tumor growth inhibition (TGI): 89%
[1]; day 12
  tumor growth inhibition (TGI): 86%
[1]; day 14
  tumor growth inhibition (TGI): 85%
[1]; day 19
  tumor growth inhibition (TGI): 76%
[1]; day 21
  tumor growth inhibition (TGI): 77%
[1]
  Average life time: 31 ± 2 days
  ILT (increase of the animal life time): 30%
  Metastasis MF (tumor metastasis frequency): 100%
  Metastasis MI (metastasis inhibition rate): 89%

## CC(=O)N[C@H]1[C@H](O[C@H]2[C@H](O[C@H](C)C(=O)N[C@@H](C)C(=O)N[C@H](CCC(=O)O)C(N)=O)[C@@H](NC(C)=O)C(O)O[C@@H]2CO)O[C@H](CO)[C@@H](O)[C@@H]1O (stereo partly drawn) [GMDP, N-acetyl-D-glucosaminyl-β-(1-4)-N-acetylmuramoyl-L-alanyl-D-isoglutamine]
[2]
  Pyrogenicity: pyrogenic effect

## N.N.[Cl][Pt][Cl] [DDP, cisplatin, reference compound]
[3]; day 7, early start (1st day)
  Tumor volume: 3 ± 3 mm^3
  tumor growth inhibition (TGI): 94%
[3]; day 9, early start (1st day)
  Tumor volume: 13 ± 5 mm^3
  tumor growth inhibition (TGI): 89%
[3]; day 9, late start (5th day)
  Tumor volume: 51 ± 8 mm^3
  tumor growth inhibition (TGI): 56%
[3]; day 12, early start (1st day)
  Tumor volume: 54 ± 18 mm^3
  tumor growth inhibition (TGI): 80%
[3]; day 12, late start (5th day)
  Tumor volume: 163 ± 22 mm^3
  tumor growth inhibition (TGI): 38%
[3]; day 14, early start (1st day)
  Tumor volume: 117 ± 20 mm^3
  tumor growth inhibition (TGI): 69%
[3]; day 14, late start (5th day)
  Tumor volume: 270 ± 45 mm^3
  tumor growth inhibition (TGI): 23%
[3]; day 16, early start (1st day)
  Tumor volume: 232 ± 36 mm^3
  tumor growth inhibition (TGI): 58%
[3]; day 16, late start (5th day)
  Tumor volume: 424 ± 43 mm^3
  tumor growth inhibition (TGI): 24%
[3]; day 19, early start (1st day)
  Tumor volume: 653 ± 176 mm^3
  tumor growth inhibition (TGI): 39%
[3]; day 19, late start (5th day)
  Tumor volume: 1010 ± 173 mm^3
  tumor growth inhibition (TGI): 5%
[3]; early start (1st day)
  Average life time: 28 ± 3 days
  ILT (increase of the animal life time): 33%
  Metastasis MF (tumor metastasis frequency): 20%
  Metastasis MI (metastasis inhibition rate): 99%
[3]; late start (5th day)
  Average life time: 25 ± 3 days
  ILT (increase of the animal life time): 19%
  Metastasis MF (tumor metastasis frequency): 100%
  Metastasis MI (metastasis inhibition rate): 11%
[4]; day 7, early start (1st day)
  Tumor volume: 37.9 ± 4.5 mm^3
  tumor growth inhibition (TGI): 64%
[4]; day 7, late start (5th day)
  Tumor volume: 75.4 ± 4.8 mm^3
  tumor growth inhibition (TGI): 28%
[4]; day 9, early start (1st day)
  Tumor volume: 67.5 ± 7.7 mm^3
  tumor growth inhibition (TGI): 53%
[4]; day 9, late start (5th day)
  Tumor volume: 65.7 ± 6.2 mm^3
  tumor growth inhibition (TGI): 54%
[4]; day 12, early start (1st day)
  Tumor volume: 76.7 ± 7.7 mm^3
  tumor growth inhibition (TGI): 61%
[4]; day 12, late start (5th day)
  Tumor volume: 95.9 ± 8.4 mm^3
  tumor growth inhibition (TGI): 51%
[4]; day 14, early start (1st day)
  Tumor volume: 155.3 ± 12 mm^3
  tumor growth inhibition (TGI): 42%
[4]; day 14, late start (5th day)
  Tumor volume: 149.3 ± 11.6 mm^3
  tumor growth inhibition (TGI): 44%
[4]; day 19, early start (1st day)
  Tumor volume: 374.1 ± 28.4 mm^3
  tumor growth inhibition (TGI): 41%
[4]; day 19, late start (5th day)
  Tumor volume: 448.9 ± 33.2 mm^3
  tumor growth inhibition (TGI): 30%
[4]; early start (1st day)
  Average life time: 23 ± 0.7 days
  ILT (increase of the animal life time): −4%
  Metastasis MF (tumor metastasis frequency): 100%
  Metastasis MI (metastasis inhibition rate): 49%
[4]; late start (5th day)
  Average life time: 24 ± 0.6 days
  ILT (increase of the animal life time): 0%
  Metastasis MF (tumor metastasis frequency): 100%
  Metastasis MI (metastasis inhibition rate): 50%
[1]; day 7
  tumor growth inhibition (TGI): 27%
[1]; day 12
  tumor growth inhibition (TGI): 36%
[1]; day 14
  tumor growth inhibition (TGI): 43%
[1]; day 19
  tumor growth inhibition (TGI): 33%
[1]; day 21
  tumor growth inhibition (TGI): 22%
[1]
  Average life time: 26 ± 1 days
  ILT (increase of the animal life time): 9%
  Metastasis MF (tumor metastasis frequency): 100%
  Metastasis MI (metastasis inhibition rate): 40%
[5]; day 8, early start (24 hour)
  Tumor volume: 29.4 ± 5.3 mm^3
  tumor growth inhibition (TGI): 65%
[5]; day 12, early start (24 hour)
  Tumor volume: 53.6 ± 5.4 mm^3
  tumor growth inhibition (TGI): 67%
[5]; day 16, early start (24 hour)
  Tumor volume: 96.3 ± 5.1 mm^3
  tumor growth inhibition (TGI): 73%
[5]; day 20, early start (24 hour)
  Tumor volume: 440 ± 26.7 mm^3
  tumor growth inhibition (TGI): 58%
[5]; early start (24 hour)
  Average life time: 30.0 ± 2.8 days
  ILT (increase of the animal life time): 22%
  Metastasis (upper, unnamed value in the Metastasis inhibition index column): 172.0 ± 14.4
  Metastasis MF (tumor metastasis frequency): 100%
  Metastasis inhibition index: 32%
